Source: patent publication US8772446B2, “Bifunctional chelating agents” (Nordion (Canada) Inc., priority 2010, dated 2014)
Read-outs that look alike come from different tables or passages of the source. Each block holds one molecule with its values, some of them ahead of it.

Assays:
human apo-transferrin [1] = biological target: T1, human apo-transferrin (Homo sapiens, UniProt P02787); assay: ^111In-chelate stability: binding competition with human apo-transferrin at ambient temperature, PD-10 columns; type: in vitro ADME; set-up: Human serum apo-transferrin was purchased from Sigma-Aldrich; purchased Sigma-Aldrich; host or cells: human serum
T1 sequence (P02787 20-698): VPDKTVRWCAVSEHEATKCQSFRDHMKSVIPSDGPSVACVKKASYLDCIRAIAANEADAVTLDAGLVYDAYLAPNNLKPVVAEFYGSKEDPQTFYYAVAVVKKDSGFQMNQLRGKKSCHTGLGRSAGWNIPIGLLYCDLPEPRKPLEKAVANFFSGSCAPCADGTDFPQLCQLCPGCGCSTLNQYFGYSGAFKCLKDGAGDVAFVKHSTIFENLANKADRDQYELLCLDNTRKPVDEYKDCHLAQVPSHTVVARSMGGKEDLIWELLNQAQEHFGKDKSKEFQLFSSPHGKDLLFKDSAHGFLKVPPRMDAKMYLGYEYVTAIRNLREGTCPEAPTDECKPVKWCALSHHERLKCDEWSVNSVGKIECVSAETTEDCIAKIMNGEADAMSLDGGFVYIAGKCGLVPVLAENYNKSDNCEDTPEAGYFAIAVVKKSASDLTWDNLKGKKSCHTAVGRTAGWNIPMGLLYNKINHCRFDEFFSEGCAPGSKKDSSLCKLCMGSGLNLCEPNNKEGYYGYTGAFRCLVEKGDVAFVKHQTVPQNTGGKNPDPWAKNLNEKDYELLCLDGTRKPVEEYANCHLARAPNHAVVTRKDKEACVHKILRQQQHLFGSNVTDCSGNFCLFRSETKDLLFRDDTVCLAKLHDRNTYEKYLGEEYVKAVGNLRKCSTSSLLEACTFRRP
Method: Human apo-transferrin (Aldrich) was suspended in 10 mM NaHCO3 buffer at pH 6.9. Labeling solutions were prepared with chelators and ^111In in 10 mM NaHCO3 buffer at pH 5.5, and allowed to sit for 20-30 minutes. Quantitative formation of ^111In-chelate complexes was confirmed by HPLC (same methods as in Example 2). ^111In(DOTA) was formed using a microwave reactor (Biotage) at 80° C. for 10 minutes to ensure quantitative labeling. Competition experiments for all 8 chelators studied (Table 3) were performed with preformed ^111In-chelate complexes at a concentration of 36.5 mM, and with human apo-transferrin at a concentration of ˜10 mM. Samples were left to sit in sterile scintillation vials for 1 hour and 24 hours at ambient temperature. Chelate stability was determined using size-exclusion ‘desalting’ columns (GE Healthcare PD-10 pre-packed columns, Sephadex G-25 M). All compounds smaller than ˜5000 Daltons were retained by the PD-10 columns, and all transferrin was eluted. PD-10 columns were conditioned by discarding the contained bactericidal solution and eluting 20 mL of phosphate buffered saline (PBS, purchased from BioWhittaker). For analysis, the competition experiment solutions were diluted to 2.5 mL with PBS, measured with a Capintec scintillation counter, loaded onto PD-10 columns, and allowed to elute into a waste container fully. An additional 3.5 mL of PBS was then loaded onto the columns and collected into a sterile scintillation vial. PD-10 columns were discarded after a single use. The vial containing the eluent was then measured with a Capintec scintillation counter to determine the amount of ^111In bound to transferrin. The difference in radioactivity between the competition experiment solutions and the eluent from the PD-10 columns was used to determine the percent ^111In bound to transferrin, and therefore the percent stability of the complexes.

human apo-transferrin [2] = biological target: T1, human apo-transferrin; settings: 40 µM
Method: (§1) FIG. 13 illustrates stacked labelling traces of ^67Ga(dedpa)^+ of 2 h stability experiment against apo-transferrin (gradient: A: NaOAc buffer, pH 4.5, B: MeOH. 0-100% B linear gradient 20 min).

human apo-transferrin [3] = biological target: T1, human apo-transferrin; assay: ^67Ga complex stability: 2-h competition with excess human apo-transferrin, HPLC; settings: for Stability in competition with excess human apo-transferrin, 10 min / Stability in competition with excess human apo-transferrin, 1 h / Stability in competition with excess human apo-transferrin, 2 h: ^67Ga complex, 37° C
Method: as §1

[4] = Solution thermodynamics: formation constants (log KML) and pM of Ga(III) complexes, potentiometric titration; type: physicochemical; settings: Calculated for 10 μM total ligand and 1 μM total metal at pH 7.4 and 25° C
Method: A more relevant indicator of the extent to which a metal complex is formed in solution is given by pM (−log free M) which considers the influence of ligand basicity and chelate hydrolysis.
Carbonate-free solutions of the titrant, NaOH, were prepared by dilution of 50% solution (Acros Organics) with freshly boiled MQ water under a stream of purified nitrogen gas. The solution was standardized with potassium acid phthalate and the extent of carbonate accumulation was periodically checked by titration with a standard hydrochloric acid solution and determination of the corresponding Gran titration plot.^47 Gallium ion solutions were prepared by dilution of the appropriate atomic absorption (AA) standard. The exact amount of acid present in the gallium standard was determined by titration of an equimolar solution of Ga and Na2H2EDTA. The amount of acid present was determined by Gran's method.^47
Data were collected in triplicate using PC Control (Version 6.0.91, Metrohm). The titration apparatus consisted of a 10 mL water jacketed glass vessel maintained at 25.0±0.1° C. (Julabo waterbath). Prior to and during the course of the titration, a blanket of nitrogen, passed through 10% NaOH to exclude any CO2, was maintained over the sample solution. The ionic strength was maintained at 0.16 M using NaCl. Prior to each potentiometric equilibrium study, the electrode was calibrated using standard HCl solutions. Calibration data were analysed by standard computer treatment provided within the program MacCalib to obtain the calibration parameters E0 and pKw.
As the degree of formation of Ga(III) complexes at low pH (<2) was too high for the determination of stability constants by use of direct potentiometry, the ligand-ligand competition method using Na2H2EDTA was also performed.

log P = type: physicochemical
[5] = Ga(III) complex, cited from earlier work; for log KML: literature value

Molecule: O=C([O-])CN1CCN(CC(=O)[O-])CCN(CC(=O)[O-])CCN(CC(=O)[O-])CC1.[111In+3] [^111In(DOTA), reference compound]
% ^111In-chelate stability, 24 hour stability (human apo-transferrin [1]): 81%

Molecule: O=C(O)c1cccc(CNCCNCc2cccc(C(=O)O)n2)n1 [^111In(1), metal not drawn]
% ^111In-chelate stability at 1 hour (human apo-transferrin [1]): 98% | % ^111In-chelate stability, 24 hour stability (human apo-transferrin [1]): 43%

Molecule: O=C(O)c1cccc(CN(CCN(Cc2ccc([N+](=O)[O-])cc2)Cc2cccc(C(=O)O)n2)Cc2ccc([N+](=O)[O-])cc2)n1 [Compound 66]
Stability in competition with excess human apo-transferrin, 10 min (human apo-transferrin [2]; 10 min): 88% | Stability in competition with excess human apo-transferrin, 1 h (human apo-transferrin [2]; 1 h): 69% | Stability in competition with excess human apo-transferrin, 2 h (human apo-transferrin [2]; 2 h): 51%

Molecule: O=C(O)CN(CCN(CC(=O)O)Cc1cccc(C(=O)O)n1)CCN(CC(=O)O)Cc1cccc(C(=O)O)n1 [^111In(6), metal not drawn]
% ^111In-chelate stability at 1 hour (human apo-transferrin [1]): 89% | % ^111In-chelate stability, 24 hour stability (human apo-transferrin [1]): 91%

Molecule: O=C(O)c1cccc(CNCCCNCc2cccc(C(=O)O)n2)n1 [^111In(3), metal not drawn]
% ^111In-chelate stability at 1 hour (human apo-transferrin [1]): 91% | % ^111In-chelate stability, 24 hour stability (human apo-transferrin [1]): 85%

Molecule: O=C(O)c1cccc(CNCCNCc2cccc(C(=O)O)n2)n1 [Compound H2dedpa]
Extraction of gallium from transferrin (in words) (human apo-transferrin [3]; challenge experiment): capable of extracting gallium from transferrin | pM [4]: 27.4

Molecule: O=C(O)c1cccc(CNCCN(CCNCc2cccc(C(=O)O)n2)Cc2cccc(C(=O)O)n2)n1 [^111In(5), metal not drawn]
% ^111In-chelate stability, 24 hour stability (human apo-transferrin [1]): 88%

Molecule: O=C(O)CN(CCCN(CC(=O)O)Cc1cccc(C(=O)O)n1)Cc1cccc(C(=O)O)n1 [^111In(4), metal not drawn]
% ^111In-chelate stability at 1 hour (human apo-transferrin [1]): 93% | % ^111In-chelate stability, 24 hour stability (human apo-transferrin [1]): 91%

Molecule: O=C([O-])CN(CCN(CC(=O)[O-])CC(=O)[O-])CCN(CC(=O)[O-])CC(=O)[O-].[111In+3] [^111In(DTPA), reference compound]
% ^111In-chelate stability at 1 hour (human apo-transferrin [1]): 86% | % ^111In-chelate stability, 24 hour stability (human apo-transferrin [1]): 88%

Molecule: Transferrin: iron transport protein found in high concentrations in the blood that has an affinity for Ga
log KML (conditional constant) ([5]; conditional constant from reference): 20.3 | pM [4]: 21.3

Molecule: COc1cc(CN(CCN(Cc2cc(OC)cc(OC)c2)Cc2cccc(C(=O)[O-])n2)Cc2cccc(C(=O)[O-])n2)cc(OC)c1.O=[N+]([O-])[O-].[Ga+3] [Ga(88)NO3]
Stability in competition with excess human apo-transferrin, 10 min (human apo-transferrin [3]): 76% | Stability in competition with excess human apo-transferrin, 1 h (human apo-transferrin [3]): 59% | Stability in competition with excess human apo-transferrin, 2 h (human apo-transferrin [3]): 52% | log P (log P): −0.32

Molecule: CCOc1cc(OCC)c(CN(CCN(Cc2cc(OC)cc(C(=O)[O-])n2)Cc2c(OCC)cc(OCC)cc2OCC)Cc2cc(OC)cc(C(=O)[O-])n2)c(OCC)c1.O=[N+]([O-])[O-].[Ga+3] [Ga(99b)NO3]
Stability in competition with excess human apo-transferrin, 10 min (human apo-transferrin [3]): 94% | Stability in competition with excess human apo-transferrin, 1 h (human apo-transferrin [3]): 93% | Stability in competition with excess human apo-transferrin, 2 h (human apo-transferrin [3]): 93% | log P (log P): 1.16

Molecule: O=C(O)CN1CCN(CC(=O)O)CCN(CC(=O)O)CCN(CC(=O)O)CC1 [DOTA, 1,4,7,10-tetraazacyclododecane-1,4,7,10-tetraacetic acid, reference compound]
log KML [5]: 21.33 | pM [4]: 18.5

More lines, main results first:

% ^111In-chelate stability at 1 hour (human apo-transferrin [1]): 90% | % ^111In-chelate stability, 24 hour stability (human apo-transferrin [1]): 91%
Molecule: O=C(O)CN(CCN(CC(=O)O)Cc1cccc(C(=O)O)n1)Cc1cccc(C(=O)O)n1 [^111In(2), metal not drawn]

Stability in competition with excess human apo-transferrin, 10 min (human apo-transferrin [3]): 95% | Stability in competition with excess human apo-transferrin, 1 h (human apo-transferrin [3]): 92% | Stability in competition with excess human apo-transferrin, 2 h (human apo-transferrin [3]): 91%
Molecule: CCOc1cc(OCC)c(CN(CCN(Cc2cccc(C(=O)[O-])n2)Cc2c(OCC)cc(OCC)cc2OCC)Cc2cccc(C(=O)[O-])n2)c(OCC)c1.O=[N+]([O-])[O-].[Ga+3] [Ga(99a)NO3]

Stability in competition with excess human apo-transferrin, 10 min (human apo-transferrin [3]): 86% | Stability in competition with excess human apo-transferrin, 1 h (human apo-transferrin [3]): 85% | Stability in competition with excess human apo-transferrin, 2 h (human apo-transferrin [3]): 82% | log P (log P): −0.03
Molecule: COc1cc(OC)c(CN(CCN(Cc2cccc(C(=O)[O-])n2)Cc2c(OC)cc(OC)cc2OC)Cc2cccc(C(=O)[O-])n2)c(OC)c1.O=[N+]([O-])[O-].[Ga+3] [Ga(91a)NO3]

pM [4]: 18.3
Molecule: O=C(O)CN(CCN(CC(=O)O)CC(=O)O)CC(=O)O [EDTA, reference compound]
log KML [5]: 21.7

pM [4]: 27.9
Molecule: O=C(O)CN1CCN(CC(=O)O)CCN(CC(=O)O)CC1 [NOTA, 1,4,7-triazacyclononane-1,4,7-triacetic acid, reference compound]
log KML [5]: 30.98

Stability in competition with excess human apo-transferrin, 10 min (human apo-transferrin [3]): 97% | Stability in competition with excess human apo-transferrin, 1 h (human apo-transferrin [3]): 96% | Stability in competition with excess human apo-transferrin, 2 h (human apo-transferrin [3]): 96% | log P (log P): 0.66
Molecule: COc1cc(CN(CCN(Cc2cc(OC)cc(C(=O)[O-])n2)Cc2c(OC)cc(OC)cc2OC)Cc2c(OC)cc(OC)cc2OC)nc(C(=O)[O-])c1.O=[N+]([O-])[O-].[Ga+3] [Ga(91b)NO3]
